From US6627581B1, “Cyclopropyl-anellated 3-(4,5-dihydroisoxazol-3-yl)-substituted benzoylpyrazoles” (BASF Aktiengesellschaft, priority 1999, dated 2003)

How the values were obtained:
Amaranthus retroflexus = test: greenhouse post-emergence herbicidal test; format: in vivo; settings: Amaranthus retroflexus (pig weed), application rates of 0.25 or 0.125 kg/ha, 2 to 4 weeks
Excerpt: (§1) The cultivation containers used were plastic pots containing loamy sand with approximately 3.0% of humus as the substrate. The seeds of the test plants were sown separately for each species.
(§2) For the post-emergence treatment, the test plants were first grown to a height of from 3 to 15 cm, depending on the plant habit, and only then treated with the active compounds which had been suspended or emulsified in water. The test plants were for this purpose either sown directly and grown in the same containers, or they were first grown separately as seedlings and transplanted into the test containers a few days prior to treatment. The application rate for the post-emergence treatment was 0.25 or 0.125 kg of a.s. (active substance)/ha.
(§3) Depending on the species, the plants were kept at 10-25° C. or 20-35° C. The test period extended over from 2 to 4 weeks. During this time, the plants were tended, and their response to the individual treatments was evaluated.
(§4) The evaluation was carried out using a scale from 0 to 100. 100 means no emergence of the plants, or complete destruction of at least the aerial parts and 0 means no damage, or normal course of growth.
(§5) The plants used in the greenhouse experiments were of the following species: […]

Avena fatua = test: greenhouse post-emergence herbicidal test; format: in vivo; settings: Avena fatua (wild oat), application rates of 0.25 or 0.125 kg/ha, 2 to 4 weeks
Excerpt: as §1, §2, §3, §4, §5

Chenopodium album = test: greenhouse post-emergence herbicidal test; format: in vivo; settings: Chenopodium album (lambsquaters), application rates of 0.25 or 0.125 kg/ha, 2 to 4 weeks
Excerpt: as §1, §2, §3, §4, §5

Echinochloa crus galli = test: greenhouse post-emergence herbicidal test; format: in vivo; settings: Echinochloa crus galli (barnyardgrass), application rates of 0.25 or 0.125 kg/ha, 2 to 4 weeks
Excerpt: as §1, §2, §3, §4, §5

Polygonum persicaria = test: greenhouse post-emergence herbicidal test; format: in vivo; settings: Polygonum persicaria (ladysthumb), application rates of 0.25 or 0.125 kg/ha, 2 to 4 weeks
Excerpt: as §1, §2, §3, §4, §5

Setaria faberi = test: greenhouse post-emergence herbicidal test; format: in vivo; settings: Setaria faberi (giant foxtail), application rates of 0.25 or 0.125 kg/ha, 2 to 4 weeks
Excerpt: as §1, §2, §3, §4, §5

Molecule `Cc1c(C(=O)c2cnn(C(C)C)c2O)ccc(S(C)(=O)=O)c1C1=NOC2CC12` (centres unmarked) [Compound 2.4] has a melting point of 90 to 95 °C.
In the case of `Cc1c(C(=O)c2cnn(C)c2O)ccc(S(C)(=O)=O)c1C1=NOC2CC12C` (centres unmarked) [Compound 2.13], the melting point is reported as 99 to 103 °C.
With `Cc1c(C(=O)c2cnn(C(C)(C)C)c2O)ccc(S(C)(=O)=O)c1C1=NOC2(C)CC12` (centres unmarked) [Compound 2.10] the melting point was 90 to 95 °C.
With `Cc1c(C(=O)c2cnn(C(C)(C)C)c2O)ccc(S(C)(=O)=O)c1C1=NOC2CC12` (centres unmarked) [Compound 2.1, 4-[2-Methyl-3-(2-oxa-3-aza-bicyclo[3.1.0]hex-3-en-4-yl)-4-methylsulfonylbenzoyl]-5-hydroxy-1-tert-butyl-1H-pyrazole] the melting point was 69 to 74 °C.
`CCn1ncc(C(=O)c2ccc(S(C)(=O)=O)c(C3=NOC4CC34)c2C)c1O` (centres unmarked) [Compound 2.2] gave a melting point of 94 to 97 °C.
For `Cc1c(C(=O)c2cnn(C)c2O)ccc(S(C)(=O)=O)c1C1=NOC2(C)CC12` (centres unmarked) [Compound 2.7], the melting point was 98 to 102 °C.
Molecule `Cc1c(C(=O)c2cnn(C)c2O)ccc(S(C)(=O)=O)c1C1=NOC2CC12` (centres unmarked) [Compound 2.3, 4-[2-Methyl-3-(2-oxa-3-azabicyclo[3.1.0]hex-3-en-4-yl)-4-methyl-sulfonylbenzoyl]-5-hydroxy-1-methyl-1H-pyrazole] has a melting point of 106 to 112 °C.
With `Cc1nn(C)c(O)c1C(=O)c1ccc(S(C)(=O)=O)c(C2=NOC3CC23)c1C` (centres unmarked) [Compound 2.5] the post-emergence action (Amaranthus retroflexus) was “very good”, the post-emergence action (Avena fatua) was “very good” and the post-emergence action (Chenopodium album) was “very good”. The post-emergence action (Echinochloa crus galli) was “very good”, the post-emergence action (Polygonum persicaria) was “very good” and the post-emergence action (Setaria faberi) was “very good”. The melting point was 89 to 91 °C.
Molecule `Cc1c(C(=O)c2cnn(C(C)C)c2O)ccc(S(C)(=O)=O)c1C1=NOC2CC12C` (centres unmarked) [Compound 2.14] has a melting point of 75 to 80 °C.
`Cc1c(C(=O)c2cnn(C(C)C)c2O)ccc(S(C)(=O)=O)c1C1=NOC2(C)CC12` (centres unmarked) [Compound 2.11] showed a melting point of 67 to 70 °C.
For `Cc1c(C(=O)c2cnn(C(C)(C)C)c2O)ccc(S(C)(=O)=O)c1C1=NOC2CC12C` (centres unmarked) [Compound 2.16], the melting point was 110 to 115 °C.
